According to ChEMBL document CHEMBL4346726 (Bioorg Med Chem Lett, 2019):

Key:
Hepacivirus hominis = experiment: Binding affinity to HCV NS3/4a protease assessed as compound-protein adduct formation per mg protein using radiolabelled compound
[1] = Inhibition of HCV genotype 3a NS3/4a protease by enzymatic assay; parameters: species or system Hepatitis C virus subtype 3a
Hepatitis C virus = experiment: Antiviral activity against HCV genotype 3a in RLuc cells assessed as reduction in viral replication by luciferase reporter gene assay; format: functional, organism-based, Hepacivirus hominis, subtype 3a
[2] = Volume of distribution at steady state in rat; format: ADME; settings: in vivo, read-out: Vdss
[3] = Clearance in rat; format: ADME; settings: in vivo
[4] = Half life in rat; format: ADME; settings: in vivo
[5] = Lipophilicity, log D of compound; format: physicochemical; settings: octanol/water
[6] = Drug concentration in rat liver after 6 hrs; format: ADME, tissue-based; settings: read-out: Drug uptake
[7] = Oral bioavailability in rat; format: ADME, organism-based; settings: in vivo
[8] = Drug metabolism in human liver microsomes assessed as metabolite formation in presence of glutathione; format: ADME, Microsome
[9] = Drug metabolism in human liver microsomes assessed as hydroxylated metabolite formation; format: ADME, Microsome
[10] = MRT in rat; format: ADME; settings: in vivo

SMILES	PB (Hepacivirus hominis)	Ki [1]	EC50 (Hepatitis C virus; Hepatitis C virus, subtype 3a)	also measured
C=C[C@@H]1C[C@]1(NC(=O)[C@@H]1C[C@@H]2CN1C(=O)[C@H](C(C)(C)C)NC(=O)O[C@@H]1C[C@H]1CCCCCc1nc3ccc(OC)cc3nc1O2)C(=O)NS(=O)(=O)C1CC1	24 pmol/mg	–	–	–
CC[C@@H]1C[C@]1(NC(=O)[C@@H]1C[C@@H](Oc2cc(-c3csc(NC(C)C)n3)nc3c(Cl)c(OCCN4CCOCC4)ccc23)CN1C(=O)[C@@H](NC(=O)O[C@@H]1C[C@@H]2C[C@@H]2C1)C(C)(C)C)C(=O)O	26 pmol/mg	–	–	–
C=C[C@@H]1C[C@]1(NC(=O)[C@@H]1C[C@@H](Oc2ncc(OC)c3ccc(Cl)cc23)CN1C(=O)[C@@H](NC(=O)OC(C)(C)C)C(C)(C)C)C(=O)NS(=O)(=O)C1CC1	114 pmol/mg	–	–	–
CC(C)(C)OC(=O)N[C@H]1CCCCC/C=C\[C@@H]2C[C@@]2(C(=O)NS(=O)(=O)C2CC2)NC(=O)[C@@H]2C[C@@H](OC(=O)N3Cc4cccc(F)c4C3)CN2C1=O	202 pmol/mg	–	–	–
CC[C@@H]1C[C@]1(NC(=O)[C@@H]1[C@H](C)[C@@H]2CN1C(=O)[C@H](C(C)(C)C)NC(=O)O[C@@H]1C[C@H]1CCCCCc1nc3ccc(OC)cc3nc1O2)C(=O)NS(=O)(=O)C1CC1	–	0.53 nM	188 nM	–
CC[C@@H]1[C@@H]2CN(C(=O)[C@H](C(C)(C)C)NC(=O)O[C@@H]3C[C@H]3CCCCC(F)c3nc4ccc(OC)cc4nc3O2)[C@@H]1C(=O)N[C@]1(C(=O)NS(=O)(=O)C2(C)CC2)C[C@H]1C(F)F (stereo partly specified)	–	0.13 nM	35 nM	–
CC[C@@H]1[C@@H]2CN(C(=O)[C@H](C(C)(C)C)NC(=O)O[C@@H]3C[C@H]3CCCC3CC3c3nc4ccc(OC)cc4nc3O2)[C@@H]1C(=O)N[C@]1(C(=O)NS(=O)(=O)C2(C)CC2)C[C@H]1C(F)F (stereo in doubt; 45)	–	1.7 nM	–	EC50 (Hepatitis C virus): 128 nM
COc1ccc2nc3c(nc2c1)O[C@H]1CN(C(=O)[C@H](C(C)(C)C)NC(=O)O[C@@H]2C[C@H]2CCCCC3)[C@H](C(=O)N[C@]2(C(=O)NS(=O)(=O)C3CC3)C[C@H]2CCF)[C@@H]1C	–	1.3 nM	419 nM	–
CC[C@@H]1[C@@H]2CN(C(=O)[C@H](C(C)(C)C)NC(=O)O[C@@H]3C[C@H]3CCCC3CC3c3nc4ccc(OC)cc4nc3O2)[C@@H]1C(=O)N[C@]1(C(=O)NS(=O)(=O)C2(C)CC2)C[C@H]1C(F)F (stereo in doubt; 46)	–	9.4 nM	–	EC50 (Hepatitis C virus): 829 nM
COc1ccc2nc3c(nc2c1)O[C@H]1CN(C(=O)[C@H](C(C)(C)C)NC(=O)O[C@@H]2C[C@H]2CCCCC3)[C@H](C(=O)N[C@]2(C(=O)NS(=O)(=O)C3CC3)C[C@H]2CC(F)F)[C@@H]1C	–	0.92 nM	375 nM	–
CC[C@@H]1[C@@H]2CN(C(=O)[C@H](C(C)(C)C)NC(=O)O[C@@H]3C[C@H]3CC/C=C/C(F)(F)c3nc4ccc(OC)cc4nc3O2)[C@@H]1C(=O)N[C@]1(C(=O)NS(=O)(=O)C2(C)CC2)C[C@H]1C(F)F	–	0.053 nM	5.3 nM	–

The next lines start with results.

PB (Hepacivirus hominis)	Ki [1]	EC50 (Hepatitis C virus; Hepatitis C virus, subtype 3a)	SMILES	also measured
–	0.63 nM	1120 nM	COc1ccc2nc3c(nc2c1)O[C@H]1CN(C(=O)[C@H](C(C)(C)C)NC(=O)O[C@@H]2C[C@H]2CCCCC3)[C@H](C(=O)N[C@]2(C(=O)NS(=O)(=O)C3(C)CC3)C[C@H]2C(F)F)[C@@H]1CC(C)C	–
117 pmol/mg	0.081 nM	20 nM	C=C[C@@H]1C[C@]1(NC(=O)[C@@H]1[C@H](CC)[C@@H]2CN1C(=O)[C@H](C(C)(C)C)NC(=O)O[C@@H]1C[C@H]1CCCCCc1nc3ccc(OC)cc3nc1O2)C(=O)NS(=O)(=O)C1CC1	Vd [2]: 1.9 L/kg; clearance [3]: 14.7 mL/min/kg; half-life [4]: 2.2 h; logD [5]: 4.1; concentration at 6 h [6]: 20.9 µM
15 pmol/mg	–	–	C=C[C@@H]1C[C@]1(NC(=O)[C@@H]1C[C@@H](Oc2cc(-c3csc(NC(=O)C(C)C)n3)nc3c(Br)c(OC)ccc23)CN1C(=O)[C@@H](NC(=O)OC1CCCC1)C(C)(C)C)C(=O)O	–
–	0.87 nM	1110 nM	COc1ccc2nc3c(nc2c1)O[C@H]1CN(C(=O)[C@H](C(C)(C)C)NC(=O)O[C@@H]2C[C@H]2CCCCC3)[C@H](C(=O)N[C@]2(C(=O)NS(=O)(=O)C3(C)CC3)C[C@H]2C(F)F)[C@@H]1Cc1ccccc1	–
–	0.043 nM	27 nM	CC[C@@H]1[C@@H]2CN(C(=O)[C@H](C(C)(C)C)NC(=O)O[C@@H]3C[C@H]3CCCCCc3nc4ccc(OC)cc4nc3O2)[C@@H]1C(=O)N[C@]1(C(=O)NS(=O)(=O)C2CC2)C[C@H]1C(F)F	Vd [2]: 1 L/kg; clearance [3]: 33.3 mL/min/kg; half-life [4]: 0.8 h; bioavailability [7]: 36%; logD [5]: 3.5; concentration at 6 h [6]: 1.2 µM
22 pmol/mg	–	–	COc1ccc2c(O[C@@H]3C[C@H]4C(=O)N[C@]5(C(=O)NS(=O)(=O)C6CC6)C[C@H]5/C=C\CCCCN(C)C(=O)[C@@H]4C3)cc(-c3nc(C(C)C)cs3)nc2c1C	–
–	0.563 nM	272 nM	CC[C@@H]1[C@@H]2CN(C(=O)[C@H](C(C)(C)C)NC(=O)O[C@@H]3C[C@H]3CCCCCc3nc4ccc(OC)cc4nc3O2)[C@@H]1C(=O)N[C@]1(C(=O)NS(=O)(=O)C2CC2)C[C@H]1CC	Vd [2]: 3.1 L/kg; clearance [3]: 11.2 mL/min/kg; half-life [4]: 5 h; bioavailability [7]: 100%; logD [5]: 4.6; concentration at 6 h [6]: 30.2 µM
–	0.1 nM	20 nM	COc1ccc2nc3c(nc2c1)O[C@H]1CN(C(=O)[C@H](C(C)(C)C)NC(=O)O[C@@H]2C[C@H]2CCCCC3)[C@H](C(=O)N[C@]2(C(=O)NS(=O)(=O)C3(C)CC3)C[C@H]2C(F)F)[C@@H]1C	Vd [2]: 2.2 L/kg; clearance [3]: 35 mL/min/kg; half-life [4]: 1.3 h; bioavailability [7]: 100%; logD [5]: 3.5; concentration at 6 h [6]: 3.1 µM
29 pmol/mg	–	–	CC[C@@H]1C[C@]1(NC(=O)[C@@H]1C[C@@H]2CN1C(=O)[C@H](C(C)(C)C)NC(=O)OCC(C)(C)CCCCc1cccc3c1CN(C3)C(=O)O2)C(=O)NS(=O)(=O)C1CC1	–
96 pmol/mg	–	–	COc1ccc2c(O[C@H]3CCN4C(=O)N(C)CCCC/C=C\[C@@H]5C[C@@]5(C(=O)NS(=O)(=O)C5(C)CC5)NC(=O)[C@@H]4C3)cc(-c3nc(C(F)(F)F)cs3)nc2c1C	–
295 pmol/mg	–	–	Cc1cnc(C(=O)N[C@H]2CCCCC/C=C\[C@@H]3C[C@@]3(C(=O)NS(=O)(=O)C3CC3)NC(=O)[C@@H]3C[C@@H](Oc4nc5ccccc5c5ccccc45)CN3C2=O)cn1	–
–	4.9 nM	1160 nM	COc1ccc2nc3c(nc2c1)O[C@H]1CN(C(=O)[C@H](C(C)(C)C)NC(=O)O[C@@H]2C[C@H]2CCCCC3)[C@H](C(=O)N[C@]2(C(=O)NS(=O)(=O)C3(C)CC3)C[C@H]2C(F)F)[C@@H]1C1CC1	–
–	0.094 nM	41 nM	C=C[C@@H]1C[C@]1(NC(=O)[C@@H]1[C@H](C)[C@@H]2CN1C(=O)[C@H](C(C)(C)C)NC(=O)O[C@@H]1C[C@H]1CCCCCc1nc3ccc(OC)cc3nc1O2)C(=O)NS(=O)(=O)C1CC1	Drug metabolism [8]: Metabolite_Detected
–	0.12 nM	36 nM	CCC[C@@H]1[C@@H]2CN(C(=O)[C@H](C(C)(C)C)NC(=O)O[C@@H]3C[C@H]3CCCCCc3nc4ccc(OC)cc4nc3O2)[C@@H]1C(=O)N[C@]1(C(=O)NS(=O)(=O)C2(C)CC2)C[C@H]1C(F)F	–
–	0.838 nM	109 nM	CC[C@@H]1[C@@H]2CN(C(=O)[C@H](C(C)(C)C)NC(=O)O[C@@H]3C[C@H]3CCCCCc3nc4ccc(OC)cc4nc3O2)[C@@H]1C(=O)N[C@]1(C(=O)NS(=O)(=O)C2(C)CC2)C[C@H]1C	–
10 pmol/mg	0.067 nM	23 nM	CC[C@@H]1[C@@H]2CN(C(=O)[C@H](C(C)(C)C)NC(=O)O[C@@H]3C[C@H]3CCCCCc3nc4ccc(OC)cc4nc3O2)[C@@H]1C(=O)N[C@]1(C(=O)NS(=O)(=O)C2(C)CC2)C[C@H]1C(F)F	Vd [2]: 1.7 L/kg; Drug metabolism [9]: Metabolite_Detected; clearance [3]: 21.7 mL/min/kg; half-life [4]: 1.4 h; bioavailability [7]: 31%; logD [5]: 3.8; concentration at 6 h [6]: 14 µM; MRT [10]: 1.4 h
–	0.165 nM	74 nM	COc1ccc2nc3c(nc2c1)O[C@@H]1C[C@@H](C(=O)N[C@]2(C(=O)NS(=O)(=O)C4(C)CC4)C[C@H]2C(F)F)N(C1)C(=O)[C@H](C(C)(C)C)NC(=O)O[C@@H]1C[C@H]1CCCCC3	–
